According to patent publication US20040038855A1 (priority 1999, published 2004):
Like-named read-outs stand apart in the source and are kept apart here.

Legend:
[1] = target: T1, human Histamine H1 receptor (Homo sapiens, UniProt P35367); test: Binding affinity at the human histamine H1 receptor; settings: Table 3c; read-out: hH1 Ki
T1 construct: expressed in transfected cells
Description: (§1) Other receptors: Cell membranes expressing human dopamine D1, D2, D4 and rat D3 receptors were purchased through BioSignal, Inc. (Montreal, Canada). Binding assays using the histamine H1 receptor; dopamine receptors; and α1A, α1B, and α2 adrenergic receptors may be carried out according to the procedures described in U.S. Pat. No. 5,780,485, the disclosure of which is hereby incorporated by reference in its entirety into this application. Binding assays using the dopamine D5 receptor may be carried out according to the procedures described in U.S. Pat. No. 5,882,855, the disclosure of which is hereby incorporated by reference in its entirety into this application. Binding assays for the human α1D adrenergic receptor may be carried out according to the procedures described in U.S. Pat. No. 6,156,518, the disclosure of which is hereby incorporated by reference in its entirety into this application.

rat MCH1 receptor = target: T2, rat MCH1 receptor (Rattus norvegicus, UniProt P97639); test: Binding affinity (Ki) at the rat MCH1 receptor
T2 construct: expressed in transfected cells
Procedure: For binding assays, pellets of transfected cells are suspended in ice-cold buffer (20 mM Tris.HCl, 5 mM EDTA, pH 7.4) and homogenized by sonication for 7 sec. The cell lysates are centrifuged at 200×g for 5 min at 4° C. The supernatants are then centrifuged at 40,000×g for 20 min at 4° C. The resulting pellets are washed once in the homogenization buffer and suspended in binding buffer (see methods for radioligand binding). Protein concentrations are determined by the method of Bradford (1976) using bovine serum albumin as the standard. Binding assays are usually performed immediately, however it is possible to prepare membranes in batch and store frozen in liquid nitrogen for future use.
Binding is performed at 25° C. for 1 hr. Incubations are terminated by rapid vacuum filtration over GF/C glass fiber filters, presoaked in 5% PEI using 50 mM Tris pH 7.4 containing 0.01% triton X-100 as wash buffer.
A methanolic solution of methyl (4S)-3-({[3-(4-[3-(acetylamino)phenyl]-3,6-dihydro-1(2H)pyridinyl)propyl]amino}carbonyl)-4-(3,4-difluorophenyl)-6-(methoxymethyl)-2-oxo-1,2,3,4-tetrahydro-5-pyrimidinecarboxylate was exposed to tritium gas at 1 atmosphere pressure in the presence of 5% palladium on carbon with stirring overnight to give the tritiated methyl (4S)-3-{[(3-{4-[3-(acetylamino)phenyl]-1-piperidinyl}propyl)amino]carbonyl}-4-(3,4-difluorophenyl)-6-(methoxymethyl)-2-oxo-1,2,3,4-tetrahydro-5-pyrimidinecarboxylate ((+)-isomer) After purification by reverse phase HPLC (Hypersil ODS, 4.6×100 mm, methanol:H2O:Et3N 10:90:1 to 100:0:1 in 15 min at 1.0 mL/min, with radiochemical and UV detection), this product was used as a radioligand in the MCH1 binding assays. The same procedure was carried out with H2 gas in place of ^3H2 to afford the non-radioactive version of Compound 10.

[2] = target: T3, human Dopamine D2 receptor (Homo sapiens, UniProt P14416); test: Binding affinity at the human dopamine D2 receptor; settings: Table 3c; read-out: hD2 Ki
T3 construct: purchased BioSignal, Inc. (Montreal, Canada)
Description: as §1

[3] = target: T4, human Alpha-1a Adrenergic receptor (Homo sapiens, UniProt P35348); test: Binding affinity at the human alpha-1A adrenergic receptor; settings: Table 3c; read-out: hAlpha-1a Ki
T4 construct: expressed in transfected cells
T4 sequence (P35348 1-466): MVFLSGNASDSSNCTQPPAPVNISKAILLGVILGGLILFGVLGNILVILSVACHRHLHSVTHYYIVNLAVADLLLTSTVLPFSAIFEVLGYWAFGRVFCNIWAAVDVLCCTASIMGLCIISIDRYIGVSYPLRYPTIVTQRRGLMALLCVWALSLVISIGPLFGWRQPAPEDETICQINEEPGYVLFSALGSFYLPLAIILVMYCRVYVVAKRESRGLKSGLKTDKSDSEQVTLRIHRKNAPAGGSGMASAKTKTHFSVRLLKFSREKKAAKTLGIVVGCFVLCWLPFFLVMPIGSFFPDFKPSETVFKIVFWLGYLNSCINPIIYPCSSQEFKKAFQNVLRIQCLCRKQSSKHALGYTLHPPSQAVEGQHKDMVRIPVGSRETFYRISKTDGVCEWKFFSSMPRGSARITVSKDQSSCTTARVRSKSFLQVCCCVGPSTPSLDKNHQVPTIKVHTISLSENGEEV
Description: as §1

[4] = Examples 38-141, read-out: Ki (nM) rMCH1
[5] = Examples 142-153, read-out: Ki (nM) rMCH1

T2 sequence (P97639 whole entry): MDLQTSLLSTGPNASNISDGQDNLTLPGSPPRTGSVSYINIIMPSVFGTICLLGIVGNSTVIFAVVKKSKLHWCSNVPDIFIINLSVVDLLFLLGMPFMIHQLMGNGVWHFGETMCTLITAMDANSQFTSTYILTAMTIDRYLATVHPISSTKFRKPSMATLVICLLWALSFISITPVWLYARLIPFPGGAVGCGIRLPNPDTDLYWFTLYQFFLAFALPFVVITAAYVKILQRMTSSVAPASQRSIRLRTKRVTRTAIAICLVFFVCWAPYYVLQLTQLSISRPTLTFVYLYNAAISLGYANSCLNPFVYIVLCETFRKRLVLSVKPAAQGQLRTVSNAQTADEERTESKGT
T3 sequence (P14416 whole entry): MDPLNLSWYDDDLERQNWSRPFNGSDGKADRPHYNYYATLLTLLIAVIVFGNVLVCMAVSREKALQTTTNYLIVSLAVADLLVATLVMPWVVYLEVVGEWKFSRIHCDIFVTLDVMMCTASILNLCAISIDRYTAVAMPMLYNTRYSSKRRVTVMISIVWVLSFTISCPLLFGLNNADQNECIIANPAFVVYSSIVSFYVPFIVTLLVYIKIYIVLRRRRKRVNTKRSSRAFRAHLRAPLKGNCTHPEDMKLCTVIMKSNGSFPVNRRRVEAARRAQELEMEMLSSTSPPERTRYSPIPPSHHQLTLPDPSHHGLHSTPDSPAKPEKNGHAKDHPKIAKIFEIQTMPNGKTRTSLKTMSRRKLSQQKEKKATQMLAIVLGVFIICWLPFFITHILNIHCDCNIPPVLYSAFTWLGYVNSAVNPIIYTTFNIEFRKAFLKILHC
T1 sequence (P35367 whole entry): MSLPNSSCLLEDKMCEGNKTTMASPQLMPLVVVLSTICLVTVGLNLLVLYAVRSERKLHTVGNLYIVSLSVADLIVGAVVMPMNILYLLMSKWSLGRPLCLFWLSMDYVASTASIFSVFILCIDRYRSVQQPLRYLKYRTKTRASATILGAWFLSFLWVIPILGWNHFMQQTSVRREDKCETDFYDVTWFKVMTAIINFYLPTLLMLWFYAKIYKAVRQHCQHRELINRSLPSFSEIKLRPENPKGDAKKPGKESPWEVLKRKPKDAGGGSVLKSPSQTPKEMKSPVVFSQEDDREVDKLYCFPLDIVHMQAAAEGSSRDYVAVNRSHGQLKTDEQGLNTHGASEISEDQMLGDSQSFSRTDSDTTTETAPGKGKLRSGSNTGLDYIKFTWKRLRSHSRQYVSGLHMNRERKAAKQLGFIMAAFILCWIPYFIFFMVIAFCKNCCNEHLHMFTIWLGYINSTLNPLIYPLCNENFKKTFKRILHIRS

Ki [1] [nM] | Ki (rat MCH1 receptor; [4]) [nM] | Ki (rat MCH1 receptor; Table 3c, read-out: rMCH1 Ki) [nM] | Ki [2] [nM] | Ki [3] [nM] | Ki (rat MCH1 receptor; [5]) [nM] | Structure (SMILES)
379 | 1.34 | 1.34 | 2370 | 23.8 | – | COCC1=C(C(=O)OC)[C@H](c2ccc(F)c(F)c2)N(C(=O)NCCCN2CCC(c3cccc(N)c3)CC2)C(=O)N1 [Example 38, METHYL (4S)-3-[({3-[4-(3-AMINOPHENYL)-1-PIPERIDINYL]PROPYL}AMINO)CARBONYL]-4-(3,4-DIFLUOROPHENYL)-6-(METHOXYMETHYL)-2-OXO-1,2,3,4-TETRAHYDRO-5-PYRIMIDINECARBOXYLATE]
– | 225 | 225 | – | – | – | COCC1=C(C(=O)NCCCN2CCC(c3cccc(NC(=O)CC(C)(C)C)c3)CC2)[C@@H](c2ccc(F)c(F)c2)NC(=O)N1 [Example 49]
– | 204 | 204 | – | – | – | CC(=O)Nc1cccc(C2CCN(CCCNC(=O)N3C(=O)NC4=C(C(=O)OC4)C3c3ccc4nonc4c3)CC2)c1 (centres unmarked) [Example 55]
– | 197 | 197 | – | – | – | O=C(CCCN1CCC(c2cccc(NC(=O)C3CCCCC3)c2)CC1)c1ccc(Cl)cc1 [Example 67]
– | 11.9 | 11.9 | – | 61 | – | COc1cccc(CC(=O)Nc2cccc(C3CCN(CCCC(=O)c4ccc(Cl)cc4)CC3)c2)c1 [Example 69]
– | 167 | 167 | – | – | – | COCC(=O)Nc1cccc(C2CCN(CCCC(=O)c3ccc(Cl)cc3)CC2)c1 [Example 70]
– | 720 | 720 | – | – | – | CS(=O)(=O)Nc1cccc(C2CCN(CCCC(=O)c3ccc(Cl)cc3)CC2)c1 [Example 71]
– | 272 | 272 | – | – | – | CCS(=O)(=O)Nc1cccc(C2CCN(CCCC(=O)c3ccc(Cl)cc3)CC2)c1 [Example 72]
– | 342 | 342 | – | – | – | CC(=O)Nc1cccc(C2CCN(CCCC(=O)c3ccccc3)CC2)c1 [Example 73]
– | 29.5 | 29.5 | 782 | 115 | – | CC(C)C(=O)Nc1cccc(C2CCN(CCCC(=O)c3ccccc3)CC2)c1 [Example 74]
– | 21 | 21 | 470 | 41.3 | – | COc1cccc(CC(=O)Nc2cccc(C3CCN(CCCC(=O)c4ccccc4)CC3)c2)c1 [Example 76]
– | 630 | 630 | – | – | – | COc1ccc(C(=O)CCCN2CCC(c3cccc(NC(C)=O)c3)CC2)c(OC)c1 [Example 77]
– | 67 | 67 | 1250 | 127 | – | COc1cccc(CC(=O)Nc2cccc(C3CCN(CCCC(=O)c4ccc(OC)cc4OC)CC3)c2)c1 [Example 80]
– | 463 | 463 | – | – | – | CC(=O)Nc1cccc(C2CCN(CCCC(=O)c3ccc(Oc4ccccc4)cc3)CC2)c1 [Example 81]
– | 192 | 192 | 1980 | 516 | – | CC(C)C(=O)Nc1cccc(C2CCN(CCCC(=O)c3ccc(Oc4ccccc4)cc3)CC2)c1 [Example 82]
– | 91 | 91 | 503 | 130 | – | COc1cccc(CC(=O)Nc2cccc(C3CCN(CCCC(=O)c4ccc(Oc5ccccc5)cc4)CC3)c2)c1 [Example 83]
– | 511 | 511 | – | – | – | CN(C)S(=O)(=O)Nc1cccc(C2CCN(CCCC(=O)c3ccc(Cl)cc3)CC2)c1 [Example 84]
– | 654 | 654 | – | – | – | CC(=O)Nc1cccc(C2CCN(CCCC(=O)c3cccs3)CC2)c1 [Example 85]

Ki [1] [nM] | Ki (rat MCH1 receptor; [4]) [nM] | Ki (rat MCH1 receptor; Table 3c, read-out: rMCH1 Ki) [nM] | Ki [2] [nM] | Ki [3] [nM] | Ki (rat MCH1 receptor; [5]) [nM] | Structure (SMILES)
– | 382 | 382 | – | – | – | CC(=O)Nc1cccc(C2CCN(CCCC(=O)c3ccc(C(C)C)cc3)CC2)c1 [Example 86]
– | 362 | 362 | – | – | – | CC(=O)Nc1cccc(C2CCN(CCCC(=O)c3ccc(C)cc3)CC2)c1 [Example 87]
– | 160 | 160 | – | – | – | CC(=O)Nc1cccc(C2CCN(CCCC(=O)c3ccc(Br)cc3)CC2)c1 [Example 88]
– | 651 | 651 | – | – | – | CC(C)S(=O)(=O)Nc1cccc(C2CCN(CCCC(=O)c3ccc(Oc4ccccc4)cc3)CC2)c1 [Example 90]
– | 946 | 946 | – | – | – | CC(C)C(=O)Nc1cccc(C2CCN(CCCN3C(=O)c4ccccc4C3=O)CC2)c1 [Example 97]
– | 118 | 118 | – | – | – | CC(C)C(=O)Nc1cccc(C2CCN(CC[C@H](O)c3ccccc3)CC2)c1 [Example 98]
– | 187 | 187 | – | – | – | COc1cccc(CN2CCC(c3cccc(NC(=O)C(C)C)c3)CC2)c1 [Example 102]
– | 22.2 | 22.2 | 37.6 | 1310 | – | CC(C)C(=O)Nc1cccc(C2CCN(CC[C@H](Oc3ccc(-c4ccccc4)cc3)c3ccccc3)CC2)c1 [Example 134]
– | 377 | 377 | – | – | – | CC(C)C(=O)Nc1cccc(C2CCN(CC[C@H](Oc3cccc4ccccc34)c3ccccc3)CC2)c1 [Example 137]
– | 11.2 | 11.2 | – | – | – | CC(C)C(=O)Nc1cccc(C2CCN(CC[C@@H](c3ccccc3)N3C(=O)c4ccccc4C3=O)CC2)c1 [Example 138]
– | 48.1 | 48.1 | – | – | – | CC(C)C(=O)Nc1cccc(C2CCN(CC[C@H](Oc3ccc(Oc4ccccc4)cc3)c3ccccc3)CC2)c1 [Example 139]
– | 121 | 121 | – | – | – | COc1ccc(O[C@H](CCN2CCC(c3ccc(NC(=O)C(C)C)cc3)CC2)c2ccccc2)cc1OC [Example 140]
– | – | – | – | – | 20.6 | CC(C)C(=O)Nc1cccc(C2CCN(Cc3c[nH]c4cc(Cl)ccc34)CC2)c1 [Example 142]
– | – | – | – | – | 14.9 | Cc1ccc(-n2cc(CN3CCC(c4cccc(NC(=O)C(C)C)c4)CC3)c3ccccc32)cc1 [Example 143]
– | – | – | – | – | 16 | CCC(=O)N[C@@H](CCN1CCC(c2cccc(NC(=O)C(C)C)c2)CC1)c1ccccc1 [Example 144]
– | – | – | – | – | 3 | CC(C)C(=O)Nc1cccc(C2CCN(CC[C@H](NC(=O)Cc3ccc(F)cc3)c3ccccc3)CC2)c1 [Example 145]
– | – | – | – | – | 3 | CC(C)C(=O)Nc1cccc(C2CCN(CCCc3c(-c4ccccc4)n(-c4ccccc4)c4ccccc34)CC2)c1 [Example 146]
– | – | – | – | – | 5.2 | CC(C)C(=O)Nc1cccc(C2CCN(Cc3ccc(Oc4ccc(Cl)cc4)cc3)CC2)c1 [Example 150]

Structure (SMILES) | Ki [1] [nM] | Ki (rat MCH1 receptor; [4]) [nM] | Ki (rat MCH1 receptor; Table 3c, read-out: rMCH1 Ki) [nM] | Ki [2] [nM] | Ki [3] [nM] | Ki (rat MCH1 receptor; [5]) [nM]
Cc1ccc(C(=O)CCCN2CCC(c3cccc(NC(=O)C4CCCCC4)c3)CC2)cc1C [Example 59] | – | 768 | 768 | – | – | –
Cc1ccc(C(=O)CCCN2CCC(c3cccc(NC(=O)Cc4ccccc4)c3)CC2)cc1C [Example 60] | – | 357 | 357 | – | – | –
COCC(=O)Nc1cccc(C2CCN(CCCC(=O)c3ccc(C)c(C)c3)CC2)c1 [Example 62] | – | 274 | 274 | – | – | –
Cc1ccc(C(=O)CCCN2CCC(c3cccc(NS(C)(=O)=O)c3)CC2)cc1C [Example 63] | – | 1000 | 1000 | – | – | –
CCS(=O)(=O)Nc1cccc(C2CCN(CCCC(=O)c3ccc(C)c(C)c3)CC2)c1 [Example 64] | – | 627 | 627 | – | – | –
O=C(Cc1ccccc1)Nc1cccc(C2CCN(CCCC(=O)c3ccccc3)CC2)c1 [Example 75] | – | 506 | 506 | – | – | –
COc1ccc(C(=O)CCCN2CCC(c3cccc(NC(=O)Cc4ccccc4)c3)CC2)c(OC)c1 [Example 79] | – | 1040 | 1040 | – | – | –
Cc1ccc(C(=O)CCCN2CCC(c3cccc(NS(=O)(=O)C(C)C)c3)CC2)cc1C [Example 89] | – | 615 | 615 | – | – | –
